In patent US10857127B2, “Vaginal delivery systems containing selective estrogen receptor modulator (SERM) and uses thereof” (Azure Biotech, Inc., priority 2016, dated 2020):
Where “and” joins values, the source holds several entries; their conditions need not be identical. Equal entries are not always repeated. Structures can show the parent of a compound that is named as a salt. Blank lines part the entries; values can stand above or below the molecule they belong to.

Key:
[1] = Dissolution studies of Lasofoxifene in organic solvents and surfactants; format: physicochemical; details: for Dissolution of Lasofoxifene in various organic solvents and surfactants, 2 mg/ml: Lasofoxifene 2 mg/ml in the labelled solvent/surfactant; for Dissolution of Lasofoxifene in various organic solvents and surfactants, 3 mg/ml: Lasofoxifene 3 mg/ml in the labelled solvent/surfactant
Method: The solubility of Lasofoxifene was investigated by screening various organic solvents and surfactants in increasing concentrations. The term “formulation” may refer to a pharmaceutical composition comprising […] pharmaceutically acceptable excipients.
First, 1 mg of Lasofoxifene was weighed into Eppendorf vessels and 500 μl of organic solvents and surfactants as listed in Table 20 were added. In cases of insufficient dissolution of the API, samples were treated with ultrasound for 30 min and, if necessary, heated to 50° C. while shaking (300 rpm). Afterwards, samples were examined visually regarding drug dissolution. In case of entire dissolution, the experiment was repeated with increasing drug concentrations until maximum dissolution was achieved. In addition, further organic solvents and surfactants were tested.

[2] = as above; format: physicochemical; details: Lasofoxifene 1 mg/ml in the labelled solvent/surfactant; visual examination
vaginal epithelium [3] = assay: Ovariectomized rat dosing frequency study: thickness of the vaginal epithelium (H & E histomorphometry); format: in vivo; design: unit not given here; details: individual animals
Description: (§1) A total of 96 young, about 6-8 weeks old, female Sprague Dawley rats were used in this pilot study. The rats were randomized by body weight into six (6) per group and sixteen (16) groups. Ninety (N=90) of the animals were ovariectomized (OVX), and six (N=6) of the animals have a sham OVX surgery. One group of six (6) animals were terminated along with the sham-operated group at Day-14 post-OVX surgery. Three groups of eighteen (18) animals were respectively terminated along with the vehicle group at Day-14, Day-17 or Day-21 post-OVX surgery. The dosing regimens, starting on Day 14 post OVX, by inserting a capsule containing the desired Lasofoxifene formulations (e.g., Test Articles F-1-L, F-1-H, F-2-L, F-2-H) into vaginal tract under brief general anesthesia.
(§2) Rats were assigned to treatment groups by randomization in BioBook system (IDBS) based on the body weights. Grouping according to the below table 1. Each rat was dosed with ready to use solution, […] into vaginal tract with a syringe.
(§3) Annotation: Groups 1 (N=6): Day-0 vehicle; dose once at 100 μL on Day-0 at 14-day post OVX, and terminate at Day-14 post OVX. Groups 2 (N=6): Day-3 vehicle; dose once at 100 μL on Day-0 at 14-day post OVX, and terminate at Day-17 post OVX. Groups 3 (N=6): Day-7 vehicle; dose once at 100 μL on Day-0 at 14-day post OVX, and terminate at Day-21 post OVX. Groups 4 (N=6): Day-0 sham: terminate at Day-14 post sham-operation. Groups 5 (N=6): F-1-L; dose once at 0.3 μg/kg (100 μL) on Day-0 at 14-day post OVX, and terminated at Day-3 after dosing. Groups 6 (N=6): F-1-H; dose once at 3.0 μg/kg (100 μL) on Day-0 at 14-day post OVX, and terminated at Day-3 after dosing. Groups 7 (N=6): F-2-L; dose once at 0.3 μg/kg (100 μL) on Day-0 at 14-day post OVX, and terminated at Day-3 after dosing. Groups 8 (N=6): F-2-H; dose once at 3.0 μg/kg (100 μL) on Day-0 at 14-day post OVX, and terminated at Day-3 after dosing. Groups 9 (N=6): F-1-L; dose once at 0.3 μg/kg (100 μL) on Day-0 at 14-day post OVX, and terminated at Day-7 after dosing. Groups 10 (N=6): F-1-H; dose once at 3.0 μg/kg (100 μL) on Day-0 at 14-day post OVX, and terminated at Day-7 after dosing. Groups 11 (N=6): F-2-L; dose once at 0.3 μg/kg (100 μL) on Day-0 at 14-day post OVX, and terminated at Day-7 after dosing. Groups 12 (N=6): F-2-H; dose once at 3.0 μg/kg (100 μL) on Day-0 at 14-day post OVX, and terminated at Day-7 after dosing. Groups 13 (N=6): F-1-L; dose twice at respectively 0.3 μg/kg (100 μL) on Day-0 and Day-4 at 14-day and 18-day post OVX, and terminated at Day-7 after dosing. Groups 14 (N=6): F-1-H; dose twice at respectively 3.0 μg/kg (100 μL) on Day-0 and Day-4 at 14-day and 18-day post OVX, and terminated at Day-7 after dosing. Groups 15 (N=6): F-2-L; dose twice at respectively 0.3 μg/kg (100 μL) on Day-0 and Day-4 at 14-day and 18-day post OVX, and terminated at Day-7 after dosing. Groups 16 (N=6): F-2-H; dose twice at respectively 3.0 μg/kg (100 μL) on Day-0 and Day-4 at 14-day and 18-day post OVX, and terminated at Day-7 after dosing. Body Weight
(§4) All animals were humanely sacrificed by CO2 and the vaginal and uterine wet-weight were collected from each, and about 0.5 mL blood were collected for analysis of serum cholesterol level. Each uterus and vagina was weighed separately and was placed in 10% NBF for at least 48 hours before being sent to Histology Laboratory for tissue processing. The paraffin blocks of these tissues were sectioned, about 4-8 μm in thickness, and one section were stained with H & E for general microscopic evaluation, and one section were stained with PAS for assessment of mucification of the epithelium.
The H & E stained sections were used to measure the height of the vaginal epithelium at minimum of ten (10) sites per slide. Photomicrographs of the slides were included in the appendix or burned on a DVD disc to accompany the final report. […]

vaginal epithelium [4] = assay: Ovariectomized rat dosing frequency study: mucification of vaginal epithelium (PAS staining, 0-4 scale); format: in vivo; details: individual animals
Description: as §1, §2, §3, §4
The PAS stained sections were used to evaluate the amount of mucification by visual approximation on a 0-4 scale, with the 4 stands for the highest amount.
Data were analyzed using GraphPad Prism software (GraphPad Software, Inc., La Jolla, Calif., USA) and are expressed as the mean±SD. […]

Uterine [5] = assay: Ovariectomized rat dosing frequency study: epithelium thickness, Uterine; format: in vivo; design: unit not given here; details: individual animals
Uterine [6] = assay: Ovariectomized rat dosing frequency study: mucification, Uterine (0-4 scale); format: in vivo; details: individual animals

Dissolution of Lasofoxifene in more lipophilic excipients ([1]; in the labelled excipient): could not be dissolved
Dissolution of Lasofoxifene in various organic solvents and surfactants, 1 mg/ml [2]: not dissolved
Structure (SMILES): CCCCOC(=O)CC(O)(CC(=O)OCCCC)C(=O)OCCCC [Tributyl citrate (TBC), Tributyl citrate]

Dissolution of Lasofoxifene in various organic solvents and surfactants, 1 mg/ml [2]: not dissolved
Structure (SMILES): CCCCCCCC/C=C\CCCCCCCC(=O)OCC [Ethyloleate]

Second part, the molecule before the results:

Structure (SMILES): C[S+](C)[O-] [DMSO, dimethyl sulfoxide]
Dissolution of Lasofoxifene in various organic solvents and surfactants, 2 mg/ml ([1]; visual examination): dissolved
Dissolution of Lasofoxifene in various organic solvents and surfactants, 3 mg/ml ([1]; visual examination): dissolved
Dissolution of Lasofoxifene in various organic solvents and surfactants, 6 mg/ml ([1]; Lasofoxifene 6 mg/ml in the labelled solvent/surfactant, visual examination): dissolved
Dissolution of Lasofoxifene in various organic solvents and surfactants, 1 mg/ml [2]: dissolved

Structure (SMILES): OCC(O)CO [Glycerol 99%, Glycerol]
Dissolution of Lasofoxifene in various organic solvents and surfactants, 2 mg/ml ([1]; visual examination): partially
Dissolution of Lasofoxifene in various organic solvents and surfactants, 3 mg/ml ([1]; visual examination): not dissolved
Dissolution of Lasofoxifene in various organic solvents and surfactants, 1 mg/ml [2]: dissolved*

Structure (SMILES): CC(=O)OCC(COC(C)=O)OC(C)=O [Triacetin (TAC), Triacetin]
Dissolution of Lasofoxifene in various organic solvents and surfactants, 2 mg/ml ([1]; visual examination): not dissolved

Structure (SMILES): Oc1ccc2c(c1)CC[C@H](c1ccccc1)[C@@H]2c1ccc(OCCN2CCCC2)cc1 [Lasofoxifene]
Thickness of the vaginal epithelium, Vagina (vaginal epithelium [3]; group G3): 23 (2×) and 22 and 21 and 15 and 18
Thickness of the vaginal epithelium, Vagina (vaginal epithelium [3]; group G5): 26 and 30 and 32 (2×) and 27 and 16
Thickness of the vaginal epithelium, Vagina (vaginal epithelium [3]; group G6): 29 (2×) and 24 and 41 and 27 and 22
Thickness of the vaginal epithelium, Vagina (vaginal epithelium [3]; group G7): 27 and 18 and 21 and 20 (2×) and 17
Thickness of the vaginal epithelium, Vagina (vaginal epithelium [3]; group G8): 32 (2×) and 24 and 28 and 14 and 26
Thickness of the vaginal epithelium, Vagina (vaginal epithelium [3]; group G9): 21 and 15 (2×) and 25 and 17 and 18
Thickness of the vaginal epithelium, Vagina (vaginal epithelium [3]; group G10): 27 and 19 and 17 (2×) and 14 and 22
Thickness of the vaginal epithelium, Vagina (vaginal epithelium [3]; group G11): 17 (2×) and 20 and 15 and 25 and 19
Thickness of the vaginal epithelium, Vagina (vaginal epithelium [3]; group G12): 16 and 21 and 17 and 18 and 20 and 19
Thickness of the vaginal epithelium, Vagina (vaginal epithelium [3]; group G13): 20 (3×) and 18 and 23 and 19
Thickness of the vaginal epithelium, Vagina (vaginal epithelium [3]; group G14): 15 and 23 and 13 and 16 and 18 and 25
Thickness of the vaginal epithelium, Vagina (vaginal epithelium [3]; group G15): 21 and 22 and 23 (3×) and 25
Thickness of the vaginal epithelium, Vagina (vaginal epithelium [3]; group G16): 22 and 28 and 20 and 19 (2×) and 16
Mucification of vaginal epithelium, Vagina (vaginal epithelium [4]; group G3): 2 (4×) and 3 (2×)
Mucification of vaginal epithelium, Vagina (vaginal epithelium [4]; group G5): 3 and 1 (3×) and 2 (2×)
Mucification of vaginal epithelium, Vagina (vaginal epithelium [4]; group G6): 2 (2×) and 1 (4×)
Mucification of vaginal epithelium, Vagina (vaginal epithelium [4]; group G7): 1 (2×) and 2 (4×)
Mucification of vaginal epithelium, Vagina (vaginal epithelium [4]; group G8): 2 (2×) and 1 (3×) and 3
Mucification of vaginal epithelium, Vagina (vaginal epithelium [4]; group G9): 3 (3×) and 1 and 2 (2×)
Mucification of vaginal epithelium, Vagina (vaginal epithelium [4]; group G10): 3 (3×) and 2 (3×)
Mucification of vaginal epithelium, Vagina (vaginal epithelium [4]; group G11): 3 (2×) and 4 and 1 and 2 (2×)
Mucification of vaginal epithelium, Vagina (vaginal epithelium [4]; group G12): 3 (4×) and 2 and 4
Mucification of vaginal epithelium, Vagina (vaginal epithelium [4]; group G13): 4 (4×) and 3 (2×)
Mucification of vaginal epithelium, Vagina (vaginal epithelium [4]; group G14): 4 (3×) and 3 (3×)
Mucification of vaginal epithelium, Vagina (vaginal epithelium [4]; group G15): 2 (2×) and 3 (4×)
Mucification of vaginal epithelium, Vagina (vaginal epithelium [4]; group G16): 4 and 3 (4×) and 2
Thickness, Uterine (Uterine [5]; group G3): 6 and 7 (3×) and 8 (2×)
Thickness, Uterine (Uterine [5]; group G5): 9 (4×) and 8 (2×)
Thickness, Uterine (Uterine [5]; group G6): 8 (3×) and 9 and 6 (2×)
Thickness, Uterine (Uterine [5]; group G7): 8 (3×) and 7 (2×) and 9
Thickness, Uterine (Uterine [5]; group G8): 6 and 8 (2×) and 10 (2×) and 7
Thickness, Uterine (Uterine [5]; group G9): 7 (2×) and 9 (2×) and 6 (2×)
Thickness, Uterine (Uterine [5]; group G10): 9 (3×) and 8 (2×) and 11
Thickness, Uterine (Uterine [5]; group G11): 5 and 7 (4×) and 9
Thickness, Uterine (Uterine [5]; group G12): 9 and 7 (3×) and 6 and 8
Thickness, Uterine (Uterine [5]; group G13): 6 (2×) and 7 and 8 (2×) and 9
Thickness, Uterine (Uterine [5]; group G14): 8 (3×) and 6 and 7 and 9
Thickness, Uterine (Uterine [5]; group G15): 9 and 8 (5×)
Thickness, Uterine (Uterine [5]; group G16): 6 (2×) and 7 (3×) and 8
Mucification, Uterine (Uterine [6]; group G3): 0
Mucification, Uterine (Uterine [6]; group G5): 0
Mucification, Uterine (Uterine [6]; group G6): 0
Mucification, Uterine (Uterine [6]; group G7): 0
Mucification, Uterine (Uterine [6]; group G8): 0
Mucification, Uterine (Uterine [6]; group G9): 0
Mucification, Uterine (Uterine [6]; group G10): 0
Mucification, Uterine (Uterine [6]; group G11): 0
Mucification, Uterine (Uterine [6]; group G12): 0
Mucification, Uterine (Uterine [6]; group G13): 0
Mucification, Uterine (Uterine [6]; group G14): 0
Mucification, Uterine (Uterine [6]; group G15): 0
Mucification, Uterine (Uterine [6]; group G16): 0
